The source of these data is PMC4685510, “A Cell Biologist’s Field Guide to Aurora Kinase Inhibitors” (Frontiers in Oncology, 2015).

What all share (assay): biochemical
Type in all cases: biochemical

In assay [1] the target is T1, 363 human kinases (including Aurora A/B/C) (Homo sapiens, UniProt Q8IW41).
T1 sequence (Q8IW41 1-473): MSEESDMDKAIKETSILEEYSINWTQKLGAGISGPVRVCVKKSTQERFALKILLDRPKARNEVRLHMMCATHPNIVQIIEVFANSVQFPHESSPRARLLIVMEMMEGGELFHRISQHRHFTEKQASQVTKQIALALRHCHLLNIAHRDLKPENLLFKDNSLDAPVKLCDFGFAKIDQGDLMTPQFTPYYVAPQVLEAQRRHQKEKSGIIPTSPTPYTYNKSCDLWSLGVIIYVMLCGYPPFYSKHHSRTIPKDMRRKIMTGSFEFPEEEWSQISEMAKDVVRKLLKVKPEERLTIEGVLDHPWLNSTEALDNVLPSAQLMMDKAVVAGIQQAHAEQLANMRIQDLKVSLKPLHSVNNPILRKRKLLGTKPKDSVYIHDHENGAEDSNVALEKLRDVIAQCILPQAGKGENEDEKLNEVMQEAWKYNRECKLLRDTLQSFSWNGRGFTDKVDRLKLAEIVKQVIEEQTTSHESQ
Conditions: MAPKAPK5/PRAK; for remaining activity at 0.5 µM / remaining activity at 0.1 µM: read-out: % Enzyme Activity (relative to DMSO controls); for remaining activity at 0.1 µM: 100 nM.
Description: (§1) However, the Aurora A/B selectivity ratios derived from our in vitro and in vivo data can be compared to prioritize inhibitors.

The target in assay [2] is 363 human kinases (including Aurora A/B/C) (Homo sapiens, UniProt Q05397). Conditions: FAK/PTK2, [ATP] 50 µM; for remaining activity at 0.5 µM / remaining activity at 0.1 µM: read-out: % Enzyme Activity (relative to DMSO controls); for remaining activity at 0.1 µM: 100 nM.
Chain of 363 human kinases (including Aurora A/B/C) (Homo sapiens, UniProt Q05397) (Q05397 whole entry): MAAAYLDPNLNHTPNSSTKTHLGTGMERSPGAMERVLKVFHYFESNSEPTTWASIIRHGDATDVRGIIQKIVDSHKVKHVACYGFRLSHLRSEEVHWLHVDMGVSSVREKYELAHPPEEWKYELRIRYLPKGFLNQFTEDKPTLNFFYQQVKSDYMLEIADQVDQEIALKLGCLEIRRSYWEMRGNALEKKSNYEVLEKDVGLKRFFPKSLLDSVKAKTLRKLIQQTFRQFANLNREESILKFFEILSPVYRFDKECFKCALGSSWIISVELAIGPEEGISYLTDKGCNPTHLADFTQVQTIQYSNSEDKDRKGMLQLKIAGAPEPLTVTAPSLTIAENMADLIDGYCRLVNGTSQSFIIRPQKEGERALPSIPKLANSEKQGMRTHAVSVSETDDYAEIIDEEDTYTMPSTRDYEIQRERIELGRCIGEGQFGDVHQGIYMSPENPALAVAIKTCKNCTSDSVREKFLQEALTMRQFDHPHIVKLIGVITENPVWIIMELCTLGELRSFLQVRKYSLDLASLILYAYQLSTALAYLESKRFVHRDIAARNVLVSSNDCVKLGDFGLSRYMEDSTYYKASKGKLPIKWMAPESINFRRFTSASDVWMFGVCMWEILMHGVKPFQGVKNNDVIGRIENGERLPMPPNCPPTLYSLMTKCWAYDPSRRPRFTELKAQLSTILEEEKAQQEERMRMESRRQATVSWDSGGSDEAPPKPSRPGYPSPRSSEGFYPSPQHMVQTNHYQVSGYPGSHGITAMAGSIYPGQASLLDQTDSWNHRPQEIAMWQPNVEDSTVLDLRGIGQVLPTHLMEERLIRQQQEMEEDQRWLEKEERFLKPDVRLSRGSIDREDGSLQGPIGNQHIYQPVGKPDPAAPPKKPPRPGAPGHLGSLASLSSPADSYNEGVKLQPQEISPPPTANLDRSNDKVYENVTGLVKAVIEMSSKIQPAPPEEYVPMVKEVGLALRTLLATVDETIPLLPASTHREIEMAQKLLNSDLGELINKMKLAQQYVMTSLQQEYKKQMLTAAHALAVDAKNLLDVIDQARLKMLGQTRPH
Description: as §1
In assay [3] the target is 363 human kinases (including Aurora A/B/C) (Homo sapiens, UniProt Q07912). Conditions: ACK1, [ATP] 100 µM; for remaining activity at 0.5 µM / remaining activity at 0.1 µM: read-out: % Enzyme Activity (relative to DMSO controls); for remaining activity at 0.1 µM: 100 nM.
Chain of 363 human kinases (including Aurora A/B/C) (Homo sapiens, UniProt Q07912) (Q07912 whole entry): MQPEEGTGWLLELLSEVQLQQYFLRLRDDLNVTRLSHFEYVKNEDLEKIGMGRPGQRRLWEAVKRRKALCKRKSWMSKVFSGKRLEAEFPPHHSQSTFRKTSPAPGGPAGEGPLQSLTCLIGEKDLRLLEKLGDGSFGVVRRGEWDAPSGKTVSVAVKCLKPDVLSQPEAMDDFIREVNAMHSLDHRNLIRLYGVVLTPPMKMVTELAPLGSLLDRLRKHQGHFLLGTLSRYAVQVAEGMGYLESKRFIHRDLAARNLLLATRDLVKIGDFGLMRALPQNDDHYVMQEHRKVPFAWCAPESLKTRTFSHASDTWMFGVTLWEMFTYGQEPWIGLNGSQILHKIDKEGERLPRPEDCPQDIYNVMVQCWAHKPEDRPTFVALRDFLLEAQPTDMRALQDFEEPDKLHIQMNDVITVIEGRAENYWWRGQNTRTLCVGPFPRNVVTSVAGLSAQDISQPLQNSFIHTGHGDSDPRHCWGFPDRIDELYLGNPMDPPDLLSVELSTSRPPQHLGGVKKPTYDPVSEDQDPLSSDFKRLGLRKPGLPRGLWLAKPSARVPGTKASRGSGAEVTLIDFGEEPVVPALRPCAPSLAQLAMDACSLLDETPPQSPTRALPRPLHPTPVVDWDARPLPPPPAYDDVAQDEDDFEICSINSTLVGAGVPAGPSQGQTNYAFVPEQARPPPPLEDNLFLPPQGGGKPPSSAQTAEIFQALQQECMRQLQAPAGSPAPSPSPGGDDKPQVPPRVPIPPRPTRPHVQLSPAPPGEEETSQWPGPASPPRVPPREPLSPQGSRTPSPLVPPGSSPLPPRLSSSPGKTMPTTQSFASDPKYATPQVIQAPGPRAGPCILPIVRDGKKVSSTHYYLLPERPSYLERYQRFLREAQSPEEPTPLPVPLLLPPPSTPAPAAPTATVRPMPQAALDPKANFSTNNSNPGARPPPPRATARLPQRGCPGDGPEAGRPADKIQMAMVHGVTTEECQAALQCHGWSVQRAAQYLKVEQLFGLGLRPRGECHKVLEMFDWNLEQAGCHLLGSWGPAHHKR
Description: as §1
The target in assay [4] is T2, 363 human kinases (including Aurora A/B/C) (Homo sapiens, UniProt P29322).
T2 sequence (P29322 28-1005): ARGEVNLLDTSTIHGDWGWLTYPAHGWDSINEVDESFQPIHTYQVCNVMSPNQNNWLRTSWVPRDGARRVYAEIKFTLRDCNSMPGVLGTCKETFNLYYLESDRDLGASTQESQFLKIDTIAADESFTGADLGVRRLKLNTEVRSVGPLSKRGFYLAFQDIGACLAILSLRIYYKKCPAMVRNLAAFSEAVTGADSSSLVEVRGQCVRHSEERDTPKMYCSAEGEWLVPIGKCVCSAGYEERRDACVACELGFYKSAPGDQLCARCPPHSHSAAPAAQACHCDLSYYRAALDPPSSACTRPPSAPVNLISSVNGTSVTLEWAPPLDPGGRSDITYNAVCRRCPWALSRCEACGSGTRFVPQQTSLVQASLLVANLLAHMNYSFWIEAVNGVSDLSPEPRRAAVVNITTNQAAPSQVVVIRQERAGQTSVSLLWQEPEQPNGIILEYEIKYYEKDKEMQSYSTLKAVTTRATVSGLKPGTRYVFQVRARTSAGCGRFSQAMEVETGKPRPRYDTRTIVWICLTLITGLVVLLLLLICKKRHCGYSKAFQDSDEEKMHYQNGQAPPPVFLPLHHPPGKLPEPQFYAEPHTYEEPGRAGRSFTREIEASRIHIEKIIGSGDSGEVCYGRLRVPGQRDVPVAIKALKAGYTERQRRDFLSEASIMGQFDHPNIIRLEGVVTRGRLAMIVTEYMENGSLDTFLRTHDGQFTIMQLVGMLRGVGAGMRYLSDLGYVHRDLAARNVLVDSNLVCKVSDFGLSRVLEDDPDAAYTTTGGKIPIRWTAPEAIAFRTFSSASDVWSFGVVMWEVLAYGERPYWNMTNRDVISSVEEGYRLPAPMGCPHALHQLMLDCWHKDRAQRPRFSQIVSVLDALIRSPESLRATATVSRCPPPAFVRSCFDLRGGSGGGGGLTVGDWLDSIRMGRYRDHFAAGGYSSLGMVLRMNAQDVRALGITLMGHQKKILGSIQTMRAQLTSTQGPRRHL
Particulars: EPHA8, [ATP] 100 µM; for remaining activity at 0.5 µM / remaining activity at 0.1 µM: read-out: % Enzyme Activity (relative to DMSO controls); for remaining activity at 0.1 µM: 100 nM.
Description: as §1

For assay [5], the target named is T3, 363 human kinases (including Aurora A/B/C) (Homo sapiens, UniProt Q9NRM7).
T3 sequence (Q9NRM7 1-1088): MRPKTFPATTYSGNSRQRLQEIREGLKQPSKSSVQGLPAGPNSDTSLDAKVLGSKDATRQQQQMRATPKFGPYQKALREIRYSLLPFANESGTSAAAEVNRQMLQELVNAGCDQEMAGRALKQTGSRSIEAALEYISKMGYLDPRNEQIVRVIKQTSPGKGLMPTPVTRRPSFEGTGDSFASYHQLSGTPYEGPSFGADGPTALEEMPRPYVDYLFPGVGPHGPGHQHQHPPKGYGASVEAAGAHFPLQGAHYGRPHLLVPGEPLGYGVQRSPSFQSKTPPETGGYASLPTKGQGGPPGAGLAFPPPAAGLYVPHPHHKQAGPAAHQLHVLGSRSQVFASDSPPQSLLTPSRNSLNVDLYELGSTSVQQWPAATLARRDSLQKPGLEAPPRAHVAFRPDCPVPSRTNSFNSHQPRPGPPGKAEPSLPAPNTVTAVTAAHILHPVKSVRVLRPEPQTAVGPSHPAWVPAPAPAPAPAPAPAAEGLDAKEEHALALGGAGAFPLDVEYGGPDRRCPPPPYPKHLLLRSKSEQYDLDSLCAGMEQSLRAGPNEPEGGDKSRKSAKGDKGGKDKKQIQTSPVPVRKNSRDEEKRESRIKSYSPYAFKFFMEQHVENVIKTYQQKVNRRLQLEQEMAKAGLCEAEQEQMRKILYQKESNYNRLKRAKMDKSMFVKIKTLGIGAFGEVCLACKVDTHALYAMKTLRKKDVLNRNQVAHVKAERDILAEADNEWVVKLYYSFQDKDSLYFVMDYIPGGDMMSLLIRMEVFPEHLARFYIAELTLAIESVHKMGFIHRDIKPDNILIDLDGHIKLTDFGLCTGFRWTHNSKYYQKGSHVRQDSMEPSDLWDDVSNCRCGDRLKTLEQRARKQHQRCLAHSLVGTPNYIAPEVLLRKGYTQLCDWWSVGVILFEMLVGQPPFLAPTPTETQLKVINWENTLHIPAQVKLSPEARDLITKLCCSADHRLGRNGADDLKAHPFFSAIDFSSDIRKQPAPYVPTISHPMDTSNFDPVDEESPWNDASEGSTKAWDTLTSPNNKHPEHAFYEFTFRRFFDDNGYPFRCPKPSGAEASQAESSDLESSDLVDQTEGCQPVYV
Particulars: LATS2; for remaining activity at 0.5 µM / remaining activity at 0.1 µM: read-out: % Enzyme Activity (relative to DMSO controls); for remaining activity at 0.1 µM: 100 nM.
Description: as §1

The target of assay [6] is 363 human kinases (including Aurora A/B/C) (Homo sapiens, UniProt Q9H1R3). Conditions: MLCK2/MYLK2; for remaining activity at 0.5 µM / remaining activity at 0.1 µM: read-out: % Enzyme Activity (relative to DMSO controls); for remaining activity at 0.1 µM: 100 nM.
Chain of 363 human kinases (including Aurora A/B/C) (Homo sapiens, UniProt Q9H1R3) (Q9H1R3 whole entry): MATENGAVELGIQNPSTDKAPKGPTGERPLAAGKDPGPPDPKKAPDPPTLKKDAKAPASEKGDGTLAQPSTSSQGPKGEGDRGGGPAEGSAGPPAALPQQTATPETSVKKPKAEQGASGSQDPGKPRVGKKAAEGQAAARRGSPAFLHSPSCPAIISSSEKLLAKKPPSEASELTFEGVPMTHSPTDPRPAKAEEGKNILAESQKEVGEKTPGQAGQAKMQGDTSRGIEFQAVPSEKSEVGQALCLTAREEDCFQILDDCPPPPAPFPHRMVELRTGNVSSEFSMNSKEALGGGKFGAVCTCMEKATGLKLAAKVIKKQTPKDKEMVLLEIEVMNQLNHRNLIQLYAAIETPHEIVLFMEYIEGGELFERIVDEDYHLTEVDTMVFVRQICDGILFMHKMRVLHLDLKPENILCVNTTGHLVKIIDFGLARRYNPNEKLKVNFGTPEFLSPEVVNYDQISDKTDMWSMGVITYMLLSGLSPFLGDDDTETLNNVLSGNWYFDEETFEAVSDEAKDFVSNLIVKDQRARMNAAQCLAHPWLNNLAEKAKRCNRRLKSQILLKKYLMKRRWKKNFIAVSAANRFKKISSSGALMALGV
Description: as §1

Turning to `O=C(c1cccc(Cl)c1F)N1CCN(Cc2cccc(Nc3nccs3)n2)CC1` [MK-8745], the “% Enzyme Activity (relative to DMSO controls)” value is 102.03% in assay [1] (500 nM); 58.97% in assay [2] (500 nM); 50.10% in assay [3] (500 nM); 85.09% in assay [4] (500 nM); 81.73% in assay [5] (500 nM); 94.16% in assay [6] (500 nM). The remaining activity at 0.5 µM in assay [1] (500 nM) amounted to 103%; in assay [2] (500 nM), 60.2%; in assay [3] (500 nM), 51.9%; in assay [4] (500 nM), 86.1%; in assay [5] (500 nM), 81.8%; in assay [6] (500 nM) it was 94.3%.
As to `CCn1cc(-c2ccnc3[nH]c(-c4cccc(CN(C)C)c4)cc23)c(-c2ccc(NC(=O)N(C)C)cc2)n1` [GSK1070916], the remaining activity at 0.1 µM turned out to be 99.4% in assay [1]; 95.2% in assay [2]; 83.9% in assay [3]; 92% in assay [4]; 90.6% in assay [5]; 96.2% in assay [6].
Consider `O=C(O)[C@]1(Cc2cccc(Nc3nccs3)n2)CC[C@@H](Oc2cccc(Cl)c2F)CC1` [MK-5108], for which the remaining activity at 0.1 µM in assay [1] came out at 101%; in assay [2] it was 49.8%; in assay [3], 15.8%; in assay [4] it was 88.7%; in assay [5], 96.8%; in assay [6], 102%. The remaining activity at 0.5 µM in assay [1] (500 nM) was 101%; in assay [2] (500 nM), 15.2%; in assay [3] (500 nM), 1.62%; in assay [4] (500 nM), 67.9%; in assay [5] (500 nM), 81.6%; in assay [6] (500 nM) it was 97.8%.
